The target of experiment [1] is KRAS-G12C (C51S/C80L/C118S) (Homo sapiens, UniProt P01116, C118S/C51S/C80L/G12C). As to the kind of experiment: SOS-catalyzed nucleotide exchange assay (Procedure A, TR-FRET), KRAS-G12C. It is filed as biochemical. As to conditions: nucleotide exchange, Procedure A; read-out: KRAS G12C GNE IC50. An outline of the steps: (§1)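 TR-FRET 520/495 nm ratio read after SOS-driven exchange of Bodipy-GDP for unlabeled GTP (3 mM) on biotinylated RAS bound to Tb-streptavidin. There was a 60 min compound preincubation, RT. Final RAS/SOS and reaction times: G12C 3 nM/40 nM; WT 1 nM/40 nM; NRAS 1.25 nM/40 nM, each 60 min. G12V was 1.25 nM/160 nM, 90 min.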
Chain of KRAS-G12C (C51S/C80L/C118S) (P01116 with tags, fused parts or gaps isoform P01116-2 G12C/C51S/C80L/C118S): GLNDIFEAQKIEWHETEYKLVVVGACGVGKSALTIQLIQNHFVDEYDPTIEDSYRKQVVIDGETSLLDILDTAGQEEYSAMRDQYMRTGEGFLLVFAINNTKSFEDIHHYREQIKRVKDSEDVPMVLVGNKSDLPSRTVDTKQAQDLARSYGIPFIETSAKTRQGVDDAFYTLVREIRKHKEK

The target in another experiment is HRAS (Homo sapiens, UniProt P01112). The experiment can be described thus: SOS-catalyzed nucleotide exchange assay (Procedure A, TR-FRET), HRAS. It is filed as biochemical. As to conditions: read-out: HRAS GNE IC50. The procedure, abridged: (§2)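 Signal ratio (520/495 nm, excitation 340 nm) reports Bodipy-GDP retention on biotinylated RAS after SOS-catalyzed exchange with 3 mM GTP. SOS was 40 nM, except 160 nM for G12V. Room-temperature exchange lasted 60 min (90 min for G12V), following a 60 min compound preincubation.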
Chain of HRAS (P01112 with tags, fused parts or gaps): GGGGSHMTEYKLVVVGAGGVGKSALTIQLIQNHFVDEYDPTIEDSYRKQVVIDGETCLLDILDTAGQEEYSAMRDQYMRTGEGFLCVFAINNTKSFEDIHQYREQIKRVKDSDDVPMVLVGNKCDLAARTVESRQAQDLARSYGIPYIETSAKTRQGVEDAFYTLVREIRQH
For orientation: In TR-FRET formats the signal depends on donor and acceptor labels being close together.

In the next experiment the target is KRAS-G12D (Homo sapiens, UniProt P01116, G12D). The experiment can be described thus: SOS-catalyzed nucleotide exchange assay (Procedure A, TR-FRET), KRAS-G12D. The experiment is classed as biochemical. As to conditions: nucleotide exchange, read-out: KRAS G12D GNE IC50. An outline of the steps:
as §2

The next experiment has as its system SW620 cells. As to the kind of experiment: Cellular phospho-ERK assay, SW620 cells (homozygous KRAS-G12V). The experiment is classed as cell-based. As to conditions: Homo sapiens, read-out: SW620 pERK IC50. The procedure, abridged:
(§3)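 ERK phosphorylation relative to total ERK is the endpoint, detected by AlphaScreen-based SureFire multiplex following a 2-hour treatment at 37 °C. Compounds are titrated 1:3 over ten points from 30 μM.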

For a further experiment, the target named is KRAS-G12V (Homo sapiens, UniProt P01116, G12V). As to the kind of experiment: SOS-catalyzed nucleotide exchange assay (Procedure A, TR-FRET), KRAS-G12V. Conditions: nucleotide exchange, read-out: KRAS G12V GNE IC50. The experiment is classed as biochemical. The procedure, abridged: as §1
Chain of KRAS-G12V (P01116 with tags, fused parts or gaps isoform P01116-2 G12V): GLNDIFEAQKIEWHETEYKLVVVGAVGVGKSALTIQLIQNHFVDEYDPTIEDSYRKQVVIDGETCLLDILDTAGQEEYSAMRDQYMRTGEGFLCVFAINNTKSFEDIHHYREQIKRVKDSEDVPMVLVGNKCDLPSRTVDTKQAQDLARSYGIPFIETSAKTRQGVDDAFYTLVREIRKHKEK
A further experiment deals with AsPC-1 cells. The experiment can be described thus: Cellular phospho-ERK assay, AsPC-1 cells (homozygous KRAS-G12D). It is filed as cell-based. Conditions: Homo sapiens, ASPC1, 2 h, read-out: AsPC1 pERK IC50. The procedure, abridged:
as §3

In another experiment the target is KRAS-WT (Homo sapiens, UniProt P01116). As to the kind of experiment: SOS-catalyzed nucleotide exchange assay (Procedure A, TR-FRET), KRAS-WT. The experiment is classed as biochemical. As to conditions: nucleotide exchange, read-out: KRAS WT GNE IC50. An outline of the steps: as §1
Chain of KRAS-WT (P01116 with tags, fused parts or gaps isoform P01116-2): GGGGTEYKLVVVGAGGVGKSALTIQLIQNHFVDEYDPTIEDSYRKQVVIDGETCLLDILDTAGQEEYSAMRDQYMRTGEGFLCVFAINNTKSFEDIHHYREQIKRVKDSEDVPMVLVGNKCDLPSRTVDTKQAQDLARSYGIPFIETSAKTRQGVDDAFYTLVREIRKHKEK
In another experiment the target is NRAS (Homo sapiens, UniProt P01111). As to the kind of experiment: SOS-catalyzed nucleotide exchange assay (Procedure A, TR-FRET), NRAS. Conditions: read-out: NRAS GNE IC50. The experiment is classed as biochemical. From the text:
Procedure for SOS-Catalyzed Nucleotide Exchange Assay for KRAS-WT, G12C/D/V, G13D, HRAS, and NRAS (Procedure A)
Recombinant KRAS-G12C protein used in this assay has an additional triple mutation (C51S/C80L/C118S). Whereas KRAS-WT, G12D/V, G13D, HRAS and NRAS are in context of their WT protein sequence background. Specifically, the SOS-catalyzed nucleotide exchange assay utilizes a preformed TR-FRET complex containing a specific biotinylated RAS protein (KRAS-WT, G12C/V/D, G13D, HRAS, NRAS; described above) with Bodipy-GDP, and Terbium-streptavidin. Compounds are preincubated with this complex for 60 minutes. Subsequently, recombinant human SOS protein and unlabeled GTP are added to initiate the exchange reaction. Small molecule inhibitors stabilize the Bodipy-GDP complex whereas the untreated protein rapidly exchanges Bodipy-GDP for unlabeled GTP resulting in reduced TR-FRET signal.
To assemble the preformed TR-FRET complexes, each biotinylated RAS protein is diluted to 2 μM in an EDTA Buffer (20 mM HEPES pH 7.5, 50 mM sodium chloride, 10 mM EDTA, and 0.01% Tween) and incubated at room temperature for one hour. This mixture is then further diluted to 90 nM in an Assay Buffer (20 mM HEPES pH 7.5, 150 mM sodium chloride, 10 mM magnesium chloride, and 0.005% Tween) containing 15 nM of Terbium-Streptavidin (Invitrogen, catalog #PV3577) and 900 nM of Bodipy-GDP (Invitrogen, catalog #G22360) and incubated at room temperature for six hours. It should be noted that this preformed TR-FRET complex for each of the RAS protein were made ahead of time, aliquoted and stored at −80° C. until the day of the experiment.
Each test compound (10 mM stock in DMSO) is diluted in DMSO to make a final-10-point, 3-fold dilution and is acoustically dispensed into a 384-well assay plate (Corning, catalog #3820) using an Echo 550 (Labcyte). Each well of the assay plate receives 3 μL of a specific 3×RAS preformed TR-FRET complex and 3 μL of Assay Buffer and is incubated at room temperature for 60 minutes (preincubation time). Each well then receives 3 μL of 3×recombinant human SOS protein and GTP (Sigma, G8877) in Assay Buffer and is incubated at room temperature for 30 minutes (G13D), 60 minutes (KRAS WT/G12C/D, H/NRAS) or 90 minutes for G12V. […]
The time-resolved fluorescence resonance energy transfer (TR-FRET) signal is measured on an Envision (PerkinElmer) plate reader: Excitation filter=340 nm; emission 1=495 nm; emission2=520 nm; dichroic mirror=D400/D505; delay time=[…]. The signal of each well is determined as the ratio of the emission at 520 nm to that at 495 nm. Percent effect of each well is determined after normalization to control wells containing DMSO (no effect) or a saturating concentration of inhibitor (max effect). […]

For the next experiment, the target named is KRAS-G13D (Homo sapiens, UniProt P01116, G13D). As to the kind of experiment: SOS-catalyzed nucleotide exchange assay (Procedure A, TR-FRET), KRAS-G13D. The experiment is classed as biochemical. Conditions: nucleotide exchange, Procedure A; read-out: KRAS G13D GNE IC50.
Chain of KRAS-G13D (P01116 with tags, fused parts or gaps isoform P01116-2 G13D): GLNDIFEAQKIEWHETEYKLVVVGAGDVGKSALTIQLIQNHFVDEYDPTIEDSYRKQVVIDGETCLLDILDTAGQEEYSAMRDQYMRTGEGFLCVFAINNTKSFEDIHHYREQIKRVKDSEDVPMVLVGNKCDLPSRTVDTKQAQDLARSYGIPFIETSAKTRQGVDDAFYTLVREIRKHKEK
The next experiment relates to MKN-1 cells. As to the kind of experiment: Cellular phospho-ERK assay, MKN-1 cells (amplified wild-type KRAS). As to conditions: Homo sapiens, read-out: MKN1 pERK IC50. The experiment is classed as cell-based. The procedure, abridged:
as §3

The subject of another experiment is PANC08.13 cells. The experiment can be described thus: Cellular phospho-ERK assay, PANC08.13 cells (homozygous KRAS-G12D). It is filed as cell-based. Conditions: Homo sapiens, read-out: PANC-08.13 pERK IC50. The procedure, abridged: as §3
Where [2] appears, read: SW-620, 2 hours compound incubation.
[3] abbreviates: amplified wild-type KRAS, 2 hours.

The structures appear in SMILES notation. Like-named read-outs stand apart in the source and are kept apart here.

One may read the IC50 as the concentration at which inhibition is half-maximal.

Chain of NRAS (P01111 with tags, fused parts or gaps): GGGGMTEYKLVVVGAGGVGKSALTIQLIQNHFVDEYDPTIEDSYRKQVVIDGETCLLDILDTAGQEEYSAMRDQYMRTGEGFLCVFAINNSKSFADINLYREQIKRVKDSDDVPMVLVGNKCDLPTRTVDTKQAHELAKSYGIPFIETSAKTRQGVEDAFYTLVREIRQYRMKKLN
Chain of KRAS-G12D (P01116 with tags, fused parts or gaps isoform P01116-2 G12D): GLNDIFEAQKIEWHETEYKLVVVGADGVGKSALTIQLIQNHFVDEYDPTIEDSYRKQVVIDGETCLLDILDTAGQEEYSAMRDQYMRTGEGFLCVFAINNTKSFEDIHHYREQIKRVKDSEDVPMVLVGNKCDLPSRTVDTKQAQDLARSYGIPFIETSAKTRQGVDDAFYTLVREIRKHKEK

On to `C#Cc1csc2cc3[nH]ncc3c(-c3nccc4c3sc3nc(OC[C@@]56CCCN5C[C@H](F)C6)nc(N5CCOC[C@@](C)(O)C5)c34)c12` [Ex-163, (6S)-4-(8-(5-ethyn-yl-1H-thieno[3,2-f]indazol-4-yl)-2-(((2R,7aS)-2-fluoro-tetrahydro-1H-pyr-rolizin-7a(5H)-yl)-methoxy)pyrido [4′,3′:4,5]thieno[2,3-d]pyrimidin-4-yl)-6-methyl-1,4-oxaze-pan-6-ol], for which the IC50 in experiment [1] came to 19.8 nM; on HRAS it was 1450 nM; on KRAS-G12D, 2.36 nM; with SW620 cells (setting [2]) it was 2.29 nM; on KRAS-G12V it was 4.53 nM; in the experiment with AsPC-1 cells (2 hours compound incubation), 14.6 nM. Moreover, the IC50 on KRAS-WT was 3.79 nM; on NRAS, 7.37 µM; on KRAS-G13D, 3.13 nM; in the experiment with MKN-1 cells (2 hours compound incubation) it was 20.8 nM.

Turning to `Cc1cc2[nH]ncc2c(-c2nccc3c2sc2nc(OC[C@]4(CN(C)C)CC4(F)F)nc(N4CCOC[C@@](C)(O)C4)c23)c1C(F)(F)F` [Ex-130, (6S)-4-(2-(((R)-1-((dimethylamino)-methyl)-2,2-di-fluorocyclopropyl)-methoxy)-8-(6-methyl-5-(trifluoro-methyl)-1H-indazol-4-yl)pyrido[4′,3′: 4,5]thieno[2,3-d]pyrimidin-4-yl)-6-methyl-1,4-oxaze-pan-6-ol], the half-inhibitory concentration (IC50) in experiment [1] came out at 101 nM; on HRAS it was 4920 nM; at KRAS-G12D, 20.3 nM; in the experiment with SW620 cells (SW-620, KRAS-G12V, 2 hours), 116 nM; at KRAS-G12V, 77.2 nM; in the experiment on AsPC-1 cells (KRAS-G12D, 2 hours), 68.7 nM. Besides, the IC50 was 27.7 nM with PANC08.13 cells (PANC-08-13, KRAS-G12D, 2 hours); 115 nM on KRAS-WT; 75.2 nM at KRAS-G13D; 248 nM in the experiment on MKN-1 cells (setting [3]).

For `C#Cc1c(F)ccc2cc(O)cc(-c3nccc4c3sc3nc(OC[C@@]56CCCN5C[C@H](F)C6)nc(N5CCOC[C@@](C)(O)C5)c34)c12` [Ex-135, (S)-4-(8-(8-ethynyl-7-fluoro-3-hydroxy-naphthalen-1-yl)-2-(((2R,7aS)-2-fluoro-tetrahydro-1H-pyr-rolizin-7a(5H)-yl)-methoxy)pyrido [4′,3′:4,5]thieno[2,3-d]pyrimidin-4-yl)-6-methyl-1,4-oxaze-pan-6-ol], the IC50 in experiment [1] amounted to 9.25 nM; on HRAS, 1570 nM; on KRAS-G12D, 1.47 nM; in the experiment with SW620 cells (setting [2]), 1.5 nM; at KRAS-G12V, 1.08 nM; with AsPC-1 cells (2 hours compound incubation), 4.61 nM. For the same compound, the IC50 in the experiment on PANC08.13 cells (PANC-08-13, 2 hours compound incubation) worked out at 1.4 nM; at KRAS-WT, 0.766 nM; at NRAS it was 9.4 µM; at KRAS-G13D, 2.54 nM; in the experiment with MKN-1 cells (2 hours compound incubation) it was 3.86 nM.

Regarding `CN(C)C[C@@]1(COc2nc(N3CCOC[C@@](C)(O)C3)c3c(n2)sc2c(-c4c(C5CC5)c(Cl)cc5[nH]ncc45)nccc23)CC1(F)F` [Ex-131, (6S)-4-(8-(6-chloro-5-cyclopropyl-1H-indazol-4-yl)-2-(((R)-1-((dimeth-ylamino)methyl)-2,2-difluorocyclo-propyl)methoxy)-pyrido[4′,3′:4,5]thieno[2,3-d]pyr-imidin-4-yl)-6-methyl-1,4-oxaze-pan-6-ol], the IC50 in experiment [1] is 97.9 nM; on HRAS, 389 nM; at KRAS-G12D it was 3.57 nM; in the experiment with SW620 cells (SW-620, KRAS-G12V, 2 hours) it was 15.1 nM; at KRAS-G12V, 18.2 nM; with AsPC-1 cells (KRAS-G12D, 2 hours) it was 21.8 nM. Moreover, the IC50 came to 11.3 nM on KRAS-WT, 5.16 µM on NRAS, 7.21 nM at KRAS-G13D and 22.8 nM in the experiment on MKN-1 cells (setting [3]).

With `C[C@@]1(O)COCCN(c2nc(OC[C@@]34CCCN3C[C@H](F)C4)nc3sc4c(-c5c(C6CC6)c(Cl)cc6[nH]ncc56)nncc4c23)C1` [Ex-280, (6S)-4-(8-(6-chloro-5-cyclopropyl-1H-indazol-4-yl)-2-(((2R,7aS)-2-fluorotetrahydro-1H-pyrrolizin-7a(5H)-yl)methoxy)pyrimi-do[5′,4′:4,5]thieno[2,3-d]pyridazin-4-yl)-6-methyl-1,4-oxazepan-6-ol], the IC50 in [1] stood at 61 nM; at HRAS it was 8660 nM; at KRAS-G12D, 4.55 nM; in the experiment on SW620 cells (SW-620, KRAS-G12V, 2 hours), 106 nM; on KRAS-G12V it was 12.4 nM; in the experiment with AsPC-1 cells (KRAS-G12D, 2 hours), 78.2 nM. Further, the IC50 on KRAS-WT amounted to 9.47 nM; at KRAS-G13D it was 4.89 nM; in the experiment with MKN-1 cells (setting [3]), 62 nM.

For the origin of these results see patent US20260176289A1, “SMALL MOLECULE INHIBITORS OF KRAS PROTEINS” (Merck Sharp & Dohme LLC, priority 2022, published 2026).
